# Data published in patent US20120245137A1 (Zalicus Pharmaceuticals Ltd., priority 2009, published 2012).
# Columns and labels:
# Type in all cases: cell-based
# [1] = biological target: N-type calcium channel subunits (α1B, α2δ, and β3a) (Homo sapiens, UniProt Q00975); experiment: Block of Cav2.2 channel, whole cell voltage clamp, manual and PatchXpress; conditions: Table 5; table follows Assay Example 3 (whole cell voltage clamp / PatchXpress); assay not given
# Method in brief: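 Percent block taken as current amplitude ratio with versus without compound, applied in rising doses; IC50 fitted where one cell received multiple doses. Protocol: 50 ms pulses to +20 mV at 0.067 Hz from […] or −90 mV holding; P/n leak subtraction, no junction-potential correction; manual and PatchXpress recordings.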
# [2] = biological target: human α1H T-type channels (Homo sapiens, UniProt O95180); experiment: T-type calcium channel block, whole cell patch clamp, α1H; conditions: HEK cells stably expressing human α1H; mainly non-inactivated protocol; values above 10,000 nM represented as 10000
# Method in brief: (§1)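 Blockade of T-type current was measured in human α1G- or α1H-expressing HEK 293 cells using whole-cell recording with ~5 MΩ pipettes. Test compounds, dissolved in external solution containing 0.1-0.01% DMSO, were applied close to the cell, and block was examined under both non-inactivating and inactivating voltage protocols.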
# [3] = biological target: human α1G T-type channels (Homo sapiens, UniProt O43497); experiment: T-type calcium channel block, whole cell patch clamp, α1G; conditions: HEK cells stably expressing human α1G; mainly non-inactivated protocol; values above 10,000 nM represented as 10000
# Method in brief: as §1
# N-type calcium channel subunits (α1B, α2δ, and β3a), sequence (Q00975 whole entry): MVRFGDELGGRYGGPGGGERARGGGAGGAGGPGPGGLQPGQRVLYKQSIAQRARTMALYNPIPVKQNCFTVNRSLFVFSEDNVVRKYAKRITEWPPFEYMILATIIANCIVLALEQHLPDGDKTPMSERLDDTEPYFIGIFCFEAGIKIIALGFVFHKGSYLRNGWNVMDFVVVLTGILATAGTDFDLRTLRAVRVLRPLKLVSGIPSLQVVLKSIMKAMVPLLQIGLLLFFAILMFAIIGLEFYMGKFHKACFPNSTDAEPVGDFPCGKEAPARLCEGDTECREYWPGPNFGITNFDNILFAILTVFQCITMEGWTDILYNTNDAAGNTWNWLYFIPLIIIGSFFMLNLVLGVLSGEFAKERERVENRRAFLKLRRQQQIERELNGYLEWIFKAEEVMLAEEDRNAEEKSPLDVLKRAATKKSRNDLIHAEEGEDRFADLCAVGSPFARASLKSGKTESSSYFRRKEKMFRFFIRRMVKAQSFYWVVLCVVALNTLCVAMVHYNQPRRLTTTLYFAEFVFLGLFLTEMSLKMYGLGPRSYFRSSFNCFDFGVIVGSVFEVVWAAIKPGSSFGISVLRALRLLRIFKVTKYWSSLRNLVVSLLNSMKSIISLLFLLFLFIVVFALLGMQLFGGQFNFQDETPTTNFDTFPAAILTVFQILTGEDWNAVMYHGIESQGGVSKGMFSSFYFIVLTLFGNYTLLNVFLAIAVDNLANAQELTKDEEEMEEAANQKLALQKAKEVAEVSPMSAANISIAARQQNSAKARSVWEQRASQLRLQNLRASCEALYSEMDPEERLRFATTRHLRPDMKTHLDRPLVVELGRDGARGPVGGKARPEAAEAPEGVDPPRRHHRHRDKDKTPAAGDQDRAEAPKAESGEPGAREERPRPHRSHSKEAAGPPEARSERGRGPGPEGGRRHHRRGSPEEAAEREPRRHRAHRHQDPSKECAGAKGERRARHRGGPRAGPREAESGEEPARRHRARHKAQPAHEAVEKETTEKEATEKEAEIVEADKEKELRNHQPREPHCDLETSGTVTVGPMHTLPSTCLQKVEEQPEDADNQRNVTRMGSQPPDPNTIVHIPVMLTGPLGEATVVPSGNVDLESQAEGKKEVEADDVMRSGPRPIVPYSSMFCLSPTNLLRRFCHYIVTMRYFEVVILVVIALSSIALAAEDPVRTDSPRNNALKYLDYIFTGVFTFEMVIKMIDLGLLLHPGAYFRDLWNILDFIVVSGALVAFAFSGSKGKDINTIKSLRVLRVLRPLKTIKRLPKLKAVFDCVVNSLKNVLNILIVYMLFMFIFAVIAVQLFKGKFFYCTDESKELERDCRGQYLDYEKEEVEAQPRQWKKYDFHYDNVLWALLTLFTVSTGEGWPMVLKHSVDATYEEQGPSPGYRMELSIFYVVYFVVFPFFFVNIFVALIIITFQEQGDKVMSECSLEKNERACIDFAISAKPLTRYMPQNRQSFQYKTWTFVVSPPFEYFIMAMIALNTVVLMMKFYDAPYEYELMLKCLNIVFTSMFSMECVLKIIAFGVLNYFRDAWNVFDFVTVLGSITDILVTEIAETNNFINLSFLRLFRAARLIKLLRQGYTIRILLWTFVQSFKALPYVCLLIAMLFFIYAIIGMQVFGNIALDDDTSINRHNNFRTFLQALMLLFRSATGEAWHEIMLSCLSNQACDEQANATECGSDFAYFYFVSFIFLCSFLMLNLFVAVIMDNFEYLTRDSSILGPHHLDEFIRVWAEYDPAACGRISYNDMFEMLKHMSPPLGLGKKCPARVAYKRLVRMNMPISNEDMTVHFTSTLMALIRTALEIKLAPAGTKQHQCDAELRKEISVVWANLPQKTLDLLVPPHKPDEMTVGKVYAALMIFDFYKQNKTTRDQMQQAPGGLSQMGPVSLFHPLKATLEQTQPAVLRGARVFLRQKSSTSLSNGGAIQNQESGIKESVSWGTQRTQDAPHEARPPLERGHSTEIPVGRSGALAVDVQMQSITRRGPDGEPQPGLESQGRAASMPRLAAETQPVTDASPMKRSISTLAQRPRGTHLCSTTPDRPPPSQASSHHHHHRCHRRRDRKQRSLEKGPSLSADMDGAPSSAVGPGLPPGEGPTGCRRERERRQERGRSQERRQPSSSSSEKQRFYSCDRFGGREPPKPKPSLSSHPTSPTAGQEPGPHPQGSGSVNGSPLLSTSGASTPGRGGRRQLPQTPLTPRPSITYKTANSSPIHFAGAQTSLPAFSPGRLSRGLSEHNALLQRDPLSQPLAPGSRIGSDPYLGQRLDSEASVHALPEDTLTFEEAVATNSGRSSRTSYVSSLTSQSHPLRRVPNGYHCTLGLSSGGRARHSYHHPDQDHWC
# N-type calcium channel subunits (α1B, α2δ, and β3a), sequence (P54289 25-1103 partner): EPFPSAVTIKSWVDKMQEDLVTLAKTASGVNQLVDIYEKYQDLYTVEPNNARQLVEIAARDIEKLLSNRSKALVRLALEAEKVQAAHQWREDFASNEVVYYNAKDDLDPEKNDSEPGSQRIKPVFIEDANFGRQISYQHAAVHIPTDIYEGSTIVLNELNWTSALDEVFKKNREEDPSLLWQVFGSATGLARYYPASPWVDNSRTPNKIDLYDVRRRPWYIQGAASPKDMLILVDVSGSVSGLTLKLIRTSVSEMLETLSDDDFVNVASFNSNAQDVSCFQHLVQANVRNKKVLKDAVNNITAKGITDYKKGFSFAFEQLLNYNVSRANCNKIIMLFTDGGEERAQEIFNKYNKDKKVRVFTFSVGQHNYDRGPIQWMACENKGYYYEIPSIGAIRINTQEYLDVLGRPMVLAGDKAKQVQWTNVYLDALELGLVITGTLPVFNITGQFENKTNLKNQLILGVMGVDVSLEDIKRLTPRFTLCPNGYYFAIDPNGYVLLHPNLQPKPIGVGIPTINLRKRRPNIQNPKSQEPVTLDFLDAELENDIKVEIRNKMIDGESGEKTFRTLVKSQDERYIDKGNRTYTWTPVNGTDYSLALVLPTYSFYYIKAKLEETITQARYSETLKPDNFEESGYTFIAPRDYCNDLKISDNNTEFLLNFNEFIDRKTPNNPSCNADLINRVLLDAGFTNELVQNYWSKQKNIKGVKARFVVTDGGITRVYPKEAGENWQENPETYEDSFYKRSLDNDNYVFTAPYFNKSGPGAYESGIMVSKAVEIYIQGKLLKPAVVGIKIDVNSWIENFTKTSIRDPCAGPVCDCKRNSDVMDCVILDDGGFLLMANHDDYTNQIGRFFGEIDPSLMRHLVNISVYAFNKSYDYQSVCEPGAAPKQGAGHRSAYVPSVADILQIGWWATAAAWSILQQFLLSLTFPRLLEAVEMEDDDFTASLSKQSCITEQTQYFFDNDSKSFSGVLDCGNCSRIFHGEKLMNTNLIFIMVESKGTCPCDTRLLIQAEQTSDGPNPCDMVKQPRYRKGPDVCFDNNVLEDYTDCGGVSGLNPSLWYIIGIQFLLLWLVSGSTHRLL
# N-type calcium channel subunits (α1B, α2δ, and β3a), sequence (P54284 whole entry partner): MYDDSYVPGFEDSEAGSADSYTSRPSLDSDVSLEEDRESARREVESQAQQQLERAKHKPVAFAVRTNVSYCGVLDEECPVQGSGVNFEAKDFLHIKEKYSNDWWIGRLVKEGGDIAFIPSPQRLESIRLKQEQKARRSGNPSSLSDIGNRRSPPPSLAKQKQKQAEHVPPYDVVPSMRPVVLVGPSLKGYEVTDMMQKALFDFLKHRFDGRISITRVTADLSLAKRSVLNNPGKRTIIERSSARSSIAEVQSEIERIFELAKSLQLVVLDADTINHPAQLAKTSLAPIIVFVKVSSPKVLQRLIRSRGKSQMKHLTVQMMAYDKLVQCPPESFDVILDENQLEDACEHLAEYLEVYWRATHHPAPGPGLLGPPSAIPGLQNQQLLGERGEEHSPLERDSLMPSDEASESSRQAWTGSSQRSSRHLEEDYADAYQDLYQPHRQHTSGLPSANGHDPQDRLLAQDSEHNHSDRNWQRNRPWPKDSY
Compound,IC50 [1] [nM],IC50 [2] [nM],IC50 [3] [nM]
"O=C(N[C@H]1CC[C@H](S(=O)(=O)c2cccc(C(F)(F)F)c2)CC1)c1ccc(Cl)c(C(F)(F)F)c1 [Compound 125, 4-chloro-3-(trifluoromethyl)-N-((1R,4R)-4-(3-(trifluoromethyl)phenylsulfonyl)cyclohexyl)benzamide]",900,2970,2910
"COc1cc(Cl)ccc1C(=O)N[C@H]1CC[C@H](S(=O)(=O)c2cccc(C(F)(F)F)c2)CC1 [Compound 127, 4-chloro-2-methoxy-N-((1R,4R)-4-(3-(trifluoromethyl)phenylsulfonyl)cyclohexyl)benzamide]",1290,1560,1140
"O=C(N[C@H]1CC[C@@H](S(=O)(=O)c2cccc(C(F)(F)F)c2)CC1)c1ccc(Cl)c(F)c1 [Compound 130, 4-chloro-3-fluoro-N-((1S,4S)-4-(3-(trifluoromethyl)phenylsulfonyl)cyclohexyl)benzamide]",290,940,430
"O=C(N[C@H]1CC[C@@H](S(=O)(=O)c2cccc(C(F)(F)F)c2)CC1)c1ccc(F)c(Cl)c1 [Compound 131, 3-chloro-4-fluoro-N-((1S,4S)-4-(3-(trifluoromethyl)phenylsulfonyl)cyclohexyl)benzamide]",160,610,160
"O=C(N[C@H]1CC[C@@H](S(=O)(=O)c2cccc(C(F)(F)F)c2)CC1)c1ccc(Cl)c(C(F)(F)F)c1 [Compound 132, 4-chloro-3-(trifluoromethyl)-N-((1S,4S)-4-(3-(trifluoromethyl)phenylsulfonyl)cyclohexyl)benzamide]",1720,4550,3670
"O=C(N[C@H]1CC[C@@H](S(=O)(=O)c2cccc(C(F)(F)F)c2)CC1)c1ccc(Cl)c(OC(F)(F)F)c1 [Compound 133, 4-chloro-3-(trifluoromethoxy)-N-((1S,4S)-4-(3-(trifluoromethyl)phenylsulfonyl)cyclohexyl)benzamide]",210,400,350
"COc1cc(Cl)ccc1C(=O)N[C@H]1CC[C@@H](S(=O)(=O)c2cccc(C(F)(F)F)c2)CC1 [Compound 134, 4-chloro-2-methoxy-N-((1S,4S)-4-(3-(trifluoromethyl)phenylsulfonyl)cyclohexyl)benzamide]",500,1820,2630
"CC1(CNC(=O)c2ccc(F)c(C(F)(F)F)c2)CCC(S(=O)(=O)c2cccc(C(F)(F)F)c2)CC1 (stereo not drawn) [Compound 135, 4-fluoro-N-((1-methyl-4-(3-(trifluoromethyl)phenylsulfonyl)cyclohexyl)methyl)-3-(trifluoromethyl)benzamide]",100,760,780
"COc1cc(F)cc(C(=O)N[C@H]2CC[C@@H](CS(=O)(=O)c3cccc(C(F)(F)F)c3)CC2)c1 [Compound 136, 3-fluoro-5-methoxy-N-((1S,4S)-4-((3-(trifluoromethyl)phenylsulfonyl)methyl)cyclohexyl)benzamide]",440,550,540
"O=C(N[C@H]1CC[C@@H](CS(=O)(=O)c2cccc(C(F)(F)F)c2)CC1)c1ccc(Cl)c(OC(F)(F)F)c1 [Compound 139, 4-chloro-3-(trifluoromethoxy)-N-((1S,4S)-4-((3-(trifluoromethyl)phenylsulfonyl)methyl)cyclohexyl)benzamide]",390,1020,1880
"O=C(N[C@H]1CC[C@@H](CS(=O)(=O)c2cccc(C(F)(F)F)c2)CC1)c1ccc(Cl)c(F)c1 [Compound 141, 4-chloro-3-fluoro-N-((1S,4S)-4-((3-(trifluoromethyl)phenylsulfonyl)methyl)cyclohexyl)benzamide]",600,3610,4250
"O=C(N[C@H]1CC[C@@H](CS(=O)(=O)c2cccc(C(F)(F)F)c2)CC1)c1ccc(F)c(Cl)c1 [Compound 142, 3-chloro-4-fluoro-N-((1S,4S)-4-((3-(trifluoromethyl)phenylsulfonyl)methyl)cyclohexyl)benzamide]",380,5880,8230
"O=C(N[C@H]1CC[C@@H](CS(=O)(=O)c2cccc(C(F)(F)F)c2)CC1)c1ccc(C(F)(F)F)cn1 [Compound 143, 5-(trifluoromethyl)-N-((1S,4S)-4-((3-(trifluoromethyl)phenylsulfonyl)methyl)cyclohexyl)picolinamide]",950,6750,> 10000
"CN(C(=O)CN[C@H]1CC[C@@H](CS(=O)(=O)c2cccc(C(F)(F)F)c2)CC1)C(C)(C)C [Compound 145, N-tert-butyl-N-methyl-2-((1S,4S)-4-((3-(trifluoromethyl)phenylsulfonyl)methyl)cyclohexylamino)acetamide]",1190,1340,5830
"COc1cc(C(=O)NCC2(C)CCC(F)(S(=O)(=O)c3cccc(C(F)(F)F)c3)CC2)cc(Cl)n1 (stereo not drawn) [Compound 158, 2-chloro-N-((4-fluoro-1-methyl-4-(3-(trifluoromethyl)phenylsulfonyl)cyclohexyl)methyl)-6-methoxyisonicotinamide]",480,7200,> 10000

# The next lines start with the values.
IC50 [1] [nM],IC50 [2] [nM],IC50 [3] [nM],Compound
460,> 10000,> 10000,"CC1(CNCC(=O)NC(C)(C)C)CCC(F)(S(=O)(=O)c2cccc(C(F)(F)F)c2)CC1 (stereo not drawn) [Compound 159, N-tert-butyl-2-((4-fluoro-1-methyl-4-(3-(trifluoromethyl)phenylsulfonyl)cyclohexyl)methylamino)acetamide]"
540,> 10000,> 10000,"O=C(CNC1CCCCC1)N[C@H]1CC[C@H](CS(=O)(=O)c2cccc(C(F)(F)F)c2)CC1 [Compound 162, 2-(cyclohexylamino)-N-((1R,4R)-4-((3-(trifluoromethyl)phenylsulfonyl)methyl)cyclohexyl)acetamide]"
540,1390,4370,"O=C(CNC1CCC(F)(F)CC1)N[C@H]1CC[C@H](CS(=O)(=O)c2cccc(C(F)(F)F)c2)CC1 [Compound 165, 2-(4,4-difluorocyclohexylamino)-N-((1R,4R)-4-((3-(trifluoromethyl)phenylsulfonyl)methyl)cyclohexyl)acetamide]"
600,2530,5560,"O=C(N[C@H]1CC[C@H](S(=O)(=O)c2cccc(C(F)(F)F)c2)CC1)c1cncc(C(F)(F)F)c1 [Compound 190, 5-(trifluoromethyl)-N-((1R,4R)-4-(3-(trifluoromethyl)phenylsulfonyl)cyclohexyl)nicotinamide]"
540,1590,6970,"O=C(N[C@H]1CC[C@@H](S(=O)(=O)c2cccc(C(F)(F)F)c2)CC1)c1ccnn1CC(F)(F)F [Compound 193, l-(2,2,2-trifluoroethyl)-N-((1S,4S)-4-(3-(trifluoromethyl)phenylsulfonyl)cyclohexyl)-1H-pyrazole-5-carboxamide]"
470,5660,> 10000,"O=C(N[C@H]1CC[C@@H](S(=O)(=O)c2cccc(C(F)(F)F)c2)CC1)c1ccc(OCC(F)(F)F)nc1 [Compound 197, 6-(2,2,2-trifluoroethoxy)-N-((1S,4S)-4-(3-(trifluoromethyl)phenylsulfonyl)cyclohexyl)nicotinamide]"
270,> 10000,> 10000,"Cc1cc(C(=O)N[C@H]2CC[C@@H](S(=O)(=O)c3cccc(C(F)(F)F)c3)CC2)c(C(F)(F)F)o1 [Compound 198, 5-methyl-2-(trifluoromethyl)-N-((1S,4S)-4-(3-(trifluoromethyl)phenylsulfonyl)cyclohexyl)furan-3-carboxamide]"
590,1890,2570,"O=C(N[C@H]1CC[C@@H](S(=O)(=O)c2cccc(C(F)(F)F)c2)CC1)c1cncc(C(F)(F)F)c1 [Compound 203, 5-(trifluoromethyl)-N-((1S,4S)-4-(3-(trifluoromethyl)phenylsulfonyl)cyclohexyl)nicotinamide]"
210,6460,3550,"CC(C)(C)S(=O)(=O)c1ccsc1C(=O)N[C@H]1CC[C@@H](S(=O)(=O)c2cccc(C(F)(F)F)c2)CC1 [Compound 204, 3-(tert-butylsulfonyl)-N-((1S,4S)-4-(3-(trifluoromethyl)phenylsulfonyl)cyclohexyl)thiophene-2-carboxamide]"
420,2550,3520,"Cn1nc(C(F)(F)F)cc1C(=O)NCC1(C)CCC(S(=O)(=O)c2cccc(C(F)(F)F)c2)CC1 (stereo not drawn) [Compound 206, 1-methyl-N-((1-methyl-4-(3-(trifluoromethyl)phenylsulfonyl)cyclohexyl)methyl)-3-(trifluoromethyl)-1H-pyrazole-5-carboxamide]"
260,1130,1340,CC1(CNC(=O)c2ccc(C(F)(F)F)cc2S(C)(=O)=O)CCC(S(=O)(=O)c2cccc(C(F)(F)F)c2)CC1 (stereo not drawn) [Compound 207]
590,1110,1140,"CC1(CNC(=O)c2ccc(C(F)(F)F)cn2)CCC(S(=O)(=O)c2cccc(C(F)(F)F)c2)CC1 (stereo not drawn) [Compound 208, N-((1-methyl-4-(3-(trifluoromethyl)phenylsulfonyl)cyclohexyl)methyl)-5-(trifluoromethyl)picolinamide]"
